Measured values taken from article PMC8279414, “Discovery and Synthesis of a Pyrimidine-Based Aurora Kinase Inhibitor to Reduce Levels of MYC Oncoproteins” (Journal of Medicinal Chemistry, 2021).

Key:
[1] = biological target: T1, human Aurora A (amino acids 123–401) (Homo sapiens, UniProt O14965); assay: In vitro inhibition of Aurora A kinase activity (Kinase-Glo Plus Luminescent Kinase assay, ATP consumption); format: biochemical; conditions: for IC50: mean of 2–3 independent determinations ± SD, >100 = inhibition < 50% at 100 nM
T1 construct: N-terminal truncated human Aurora A (amino acids 123–401); GST; made in house; host or cells: Sf9 insect cells
T1 sequence (O14965 123-401): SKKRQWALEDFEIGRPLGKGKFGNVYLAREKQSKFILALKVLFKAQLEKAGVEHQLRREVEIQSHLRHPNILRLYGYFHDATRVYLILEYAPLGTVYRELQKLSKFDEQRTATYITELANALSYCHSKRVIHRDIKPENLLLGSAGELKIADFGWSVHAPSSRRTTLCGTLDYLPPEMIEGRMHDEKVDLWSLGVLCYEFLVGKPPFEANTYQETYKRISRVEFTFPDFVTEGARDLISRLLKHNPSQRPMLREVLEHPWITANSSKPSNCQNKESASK
Method: The inhibitory potency of the newly synthesized small molecules against Aurora A was first measured in ATP consumption assays using purified Aurora A protein.
The efficacy of the compounds as inhibitors of Aurora A kinase was assessed in vitro using the Kinase-Glo Plus Luminescent Kinase assay (Promega, USA), as described previously.[45] […] The resulting mixture was incubated at 25 °C for 20 min. A 70 μL aliquot of the mixture was transferred to a black microtiter plate.

MYCN in SK-N-BE(2) = assay: Western blot analysis of MYCN protein level in SK-N-BE(2) cells; format: cell-based; conditions: 1.0 μM of compound, 24 h, mean ± SD, triplicate
Method: (§1) Cancer cells were treated with each of the compounds at different compound concentrations. […] Each lysate was separated by sodium dodecyl sulfate polyacrylamide gel electrophoresis (SDS-PAGE), transferred to polyvinylidene fluoride (PVDF, Millipore, USA) membrane, and blotted with antibodies. […] After the blotting (0.2% casein, 1% BSA, or 5% nonfat milk), membranes were washed with blotting buffer (0.2% casein in 1× PBS or 1× TBST), and corresponding alkaline phosphatase (AP)- or horseradish peroxidase (HRP)-conjugated secondary antibodies (Sigma-Aldrich) were added. The blots were developed by chemiluminescence (PerkinElmer, USA).

cMYC in NCI-H82 = assay: Western blot analysis of cMYC protein level in NCI-H82 cells; format: cell-based; conditions: 24 h; for NCI-H82 cMYC, relative protein level: 1.0 μM of compound, mean ± SD, triplicate; for effect on cMYC protein level in NCI-H82: various concentrations
Method: as §1

Row | SMILES | reduction of Aurora A inhibitory potency versus 13 [1] | IC50 [1] | SK-N-BE(2) MYCN, relative protein level (MYCN in SK-N-BE(2)) | NCI-H82 cMYC, relative protein level (cMYC in NCI-H82) | effect on cMYC protein level in NCI-H82 (cMYC in NCI-H82)
1 | CCN1CCN(c2cc(Nc3cc(C)[nH]n3)nc(N[C@H]3CCN(S(=O)(=O)c4ccc(Cl)cc4F)C3)n2)CC1 [Compound 21, (S)-N^2-(1-((4-Chloro-2-fluorophenyl)sulfonyl)pyrrolidin-3-yl)-6-(4-ethylpiperazin-1-yl)-N^4-(5-methyl-1H-pyrazol-3-yl)pyrimidine-2,4-diamine] | more than 2.5 fold | > 0.1 µM |  |  | 
2 | CCN1CCN(c2cc(Nc3cc(C)[nH]n3)nc(N[C@H]3CCN(C(=O)c4ccc(C(F)(F)F)cc4F)C3)n2)CC1 [Compound 14, (S)-(3-((4-(4-Ethylpiperazin-1-yl)-6-((5-methyl-1H-pyrazol-3-yl)amino)pyrimidin-2-yl)amino)pyrrolidin-1-yl) (2-fluoro-4-(trifluoromethyl)phenyl)methanone] |  | > 0.1 µM |  |  | 
3 | CCN1CCN(c2cc(Nc3cc(C)[nH]n3)nc(N[C@H]3CCN(C(=O)c4cc(F)c(Cl)c(F)c4)C3)n2)CC1 [Compound 18, (S)-(4-Chloro-3,5-difluorophenyl) (3-((4-(4-ethylpiperazin-1-yl)-6-((5-methyl-1H-pyrazol-3-yl)amino)pyrimidin-2-yl)amino)pyrrolidin-1-yl)methanone] |  | > 0.1 µM |  |  | 
4 | CCN1CCN(c2cc(Nc3cc(C)[nH]n3)nc(N[C@H]3CCN(C(=O)c4cc(F)c(Cl)cc4F)C3)n2)CC1 [Compound 16, (S)-(4-Chloro-2,5-difluorophenyl) (3-((4-(4-ethylpiperazin-1-yl)-6-((5-methyl-1H-pyrazol-3-yl)amino)pyrimidin-2-yl)amino)pyrrolidin-1-yl)methanone] |  | 0.0509 ± 0.0023 µM | 0.792 ± 0.170 | 0.834 ± 0.121 | 
5 | CCN1CCN(c2cc(Nc3cc(C)[nH]n3)nc(N[C@H]3CCN(C(=O)c4c(F)cc(Cl)cc4F)C3)n2)CC1 [Compound 15, (S)-(4-Chloro-2,6-difluorophenyl) (3-((4-(4-ethylpiperazin-1-yl)-6-((5-methyl-1H-pyrazol-3-yl)amino)pyrimidin-2-yl)amino)pyrrolidin-1-yl)methanone] |  | 0.0567 ± 0.0039 µM | 0.757 ± 0.121 | 1.153 ± 0.158 | 
6 | Cc1cc(Nc2cc(N(C)CCN(C)C)nc(N[C@H]3CCN(C(=O)c4cccc(Cl)c4F)C3)n2)n[nH]1 [Compound 5, (S)-(3-Chloro-2-fluorophenyl) (3-((4-((2-(dimethylamino)ethyl) (methyl)amino)-6-((5-methyl-1H-pyrazol-3-yl)amino)pyrimidin-2-yl)amino)pyrrolidin-1-yl)methanone] |  | 0.0408 ± 0.0028 µM |  |  | 
7 | CCN1CCN(c2cc(Nc3cc(C)[nH]n3)nc(N[C@H]3CCN(C(=O)c4ccccc4)C3)n2)CC1 [Compound 6, (S)-(3-((4-(4-Ethylpiperazin-1-yl)-6-((5-methyl-1H-pyrazol-3-yl)amino)pyrimidin-2-yl)amino)pyrrolidin-1-yl) (phenyl)methanone] |  | 0.029 ± 0.0067 µM |  |  | 
8 | Cc1cc(Nc2cc(N3CC[C@H](N(C)C)C3)nc(N[C@H]3CCN(C(=O)c4cccc(Cl)c4F)C3)n2)n[nH]1 [Compound 4, (3-Chloro-2-fluorophenyl) ((S)-3-((4-((S)-3-(dimethylamino)pyrrolidin-1-yl)-6-((5-methyl-1H-pyrazol-3-yl)amino)pyrimidin-2-yl)amino)pyrrolidin-1-yl)methanone] |  | 0.0298 ± 0.0007 µM |  |  | 
9 | CCN1CCN(c2cc(Nc3cc(C)[nH]n3)nc(N[C@H]3CCN(C(=O)c4ccc(Cl)c(F)c4)C3)n2)CC1 [Compound 10, (S)-(4-Chloro-3-fluorophenyl) (3-((4-(4-ethylpiperazin-1-yl)-6-((5-methyl-1H-pyrazol-3-yl)amino)pyrimidin-2-yl)amino)pyrrolidin-1-yl)methanone] |  | 0.0522 ± 0.0081 µM | 0.578 ± 0.135 | 0.715 ± 0.048 | 
10 | CCN1CCN(c2cc(Nc3cc(C)[nH]n3)nc(N[C@H]3CCN(C(=O)c4ccc(Cl)c(F)c4F)C3)n2)CC1 [Compound 17, (S)-(4-Chloro-2,3-difluorophenyl) (3-((4-(4-ethylpiperazin-1-yl)-6-((5-methyl-1H-pyrazol-3-yl)amino)pyrimidin-2-yl)amino)pyrrolidin-1-yl)methanone] |  | 0.0649 ± 0.0137 µM | 0.541 ± 0.068 | 0.744 ± 0.124 | 
11 | CCN1CCN(C(=O)Cc2ccc(Nc3ncc(F)c(Nc4ccc(C(=O)Nc5ccccc5Cl)cc4)n3)cc2)CC1 [Aurora A inhibitor I, reference compound] |  |  |  |  | limited effect
12 | Cc1cc(Nc2cc(N3CCN(C)CC3)nc(N[C@H]3CCN(C(=O)c4cccc(Cl)c4F)C3)n2)n[nH]1 [Compound 2, (S)-(3-Chloro-2-fluorophenyl) (3-((4-((5-methyl-1H-pyrazol-3-yl)amino)-6-(4-methylpiperazin-1-yl)pyrimidin-2-yl)amino)pyrrolidin-1-yl)methanone] |  | 0.0257 ± 0.0049 µM |  |  | 
13 | CCN(CCCOc1ccc2c(Nc3cc(CC(=O)Nc4cccc(F)c4)[nH]n3)ncnc2c1)CCOP(=O)(O)O [AZD1152, reference compound] |  |  |  |  | limited effect
14 | CCN1CCN(c2cc(Nc3cc(C)[nH]n3)nc(N[C@H]3CCN(C(=O)c4ccc(Cl)nc4F)C3)n2)CC1 [Compound 20, (S)-(6-Chloro-2-fluoropyridin-3-yl) (3-((4-(4-ethylpiperazin-1-yl)-6-((5-methyl-1H-pyrazol-3-yl)amino)pyrimidin-2-yl)amino)pyrrolidin-1-yl)methanone] | more than 2.5 fold | > 0.1 µM |  |  | 
15 | Cc1cc(Nc2cc(N3CC(N(C)C)C3)nc(N[C@H]3CCN(C(=O)c4cccc(Cl)c4F)C3)n2)n[nH]1 [Compound 3, (S)-(3-Chloro-2-fluorophenyl) (3-((4-(3-(dimethylamino)azetidin-1-yl)-6-((5-methyl-1H-pyrazol-3-yl)amino)pyrimidin-2-yl)amino)pyrrolidin-1-yl)methanone] |  | 0.0298 ± 0.0025 µM |  |  | 
16 | CCN1CCN(c2cc(Nc3cc(C)[nH]n3)nc(N[C@H]3CCN(C(=O)c4ccc(Cl)cc4Cl)C3)n2)CC1 [Compound 8, (S)-(2,4-Dichlorophenyl) (3-((4-(4-ethylpiperazin-1-yl)-6-((5-methyl-1H-pyrazol-3-yl)amino)pyrimidin-2-yl)amino)pyrrolidin-1-yl)methanone] |  | 0.0482 ± 0.0097 µM | 1.000 ± 0.035 | 1.175 ± 0.124 | 
17 | CCN1CCN(c2cc(Nc3cc(C)[nH]n3)nc(N[C@H]3CCN(C(=O)c4cc(Cl)ccc4F)C3)n2)CC1 [Compound 12, (S)-(5-Chloro-2-fluorophenyl) (3-((4-(4-ethylpiperazin-1-yl)-6-((5-methyl-1H-pyrazol-3-yl)amino)pyrimidin-2-yl)amino)pyrrolidin-1-yl)methanone] |  | 0.0458 ± 0.0014 µM | 0.734 ± 0.104 | 0.559 ± 0.119 | 
18 | CCN1CCN(c2cc(Nc3cc(C)[nH]n3)nc(N[C@H]3CCN(C(=O)c4ccc(Cl)cc4)C3)n2)CC1 [Compound 7, (S)-(4-Chlorophenyl) (3-((4-(4-ethylpiperazin-1-yl)-6-((5-methyl-1H-pyrazol-3-yl)amino)pyrimidin-2-yl)amino)pyrrolidin-1-yl)methanone] |  | 0.0429 ± 0.0026 µM | 0.889 ± 0.067 | 0.887 ± 0.050 | 
19 | CCN1CCN(c2cc(Nc3cc(C)[nH]n3)nc(N[C@H]3CCN(C(=O)c4cc(F)c(F)cc4F)C3)n2)CC1 [Compound 19, (S)-(3-((4-(4-Ethylpiperazin-1-yl)-6-((5-methyl-1H-pyrazol-3-yl)amino)pyrimidin-2-yl)amino)pyrrolidin-1-yl) (2,4,5-trifluorophenyl)methanone] |  | > 0.1 µM |  |  | 
20 | CCN1CCN(c2cc(Nc3cc(C)[nH]n3)nc(N[C@H]3CCN(C(=O)c4ccc(Cl)cc4C)C3)n2)CC1 [Compound 9, (S)-(4-Chloro-2-methylphenyl) (3-((4-(4-ethylpiperazin-1-yl)-6-((5-methyl-1H-pyrazol-3-yl)amino)pyrimidin-2-yl)amino)pyrrolidin-1-yl)methanone] |  | 0.0649 ± 0.0085 µM | 1.057 ± 0.312 | 0.984 ± 0.052 | 
21 | CCN1CCN(c2cc(Nc3cc(C)[nH]n3)nc(N[C@H]3CCN(C(=O)c4cccc(Cl)c4F)C3)n2)CC1 [Compound 1, (S)-(3-Chloro-2-fluorophenyl) (3-((4-(4-ethylpiperazin-1-yl)-6-((5-methyl-1H-pyrazol-3-yl)amino)pyrimidin-2-yl)amino)pyrrolidin-1-yl)methanone] |  | 0.0241 ± 0.0079 µM |  | 0.781 ± 0.015 | 
